# In US12384800B2, “Antitumoral compounds” (priority 2017, dated 2025):
# Where “and” joins values, the source holds several entries; their conditions need not be identical. Equal values may be shown once. Read-outs that look alike come from different tables or passages of the source.
# Key:
# [1] = MTMD (Maximum Tolerated Multiple Dose) determination, iv weekly x 3; assay type: in vivo; details: mice; iv/Q7d × 3
# Excerpt: Female CD-1 or Athymic Nude-Fox1 nu/nu mice (Envigo) were utilized for all experiments. […] Animals were acclimated for five days prior to being individually tattoo-identified. Animal protocols were reviewed and approved according to the regional Institutional Animal Care and Use Committees.
# Mice were randomly allocated into experimental groups and intravenously administered, once for the MTD (Maximum Tolerated Dose) determination or one administration a week during three consecutive weeks, for the MTMD (Maximum Tolerated Multiple Dose) determination study. The animals were administered with white formulation or with compound dissolved in the experimental formulation at different concentrations. The volume administered was always […]. Once administered, animals were monitored for clinical signs of systemic toxicity, changes in body weight and mortality up to 14 days after the administration.
# HT1080 tumors [2] = details: Day 0
# H460 tumors = experiment: Human lung (NSCLC) xenograft, tumor volume
# Procedure: (§1) Female athymic nu/nu mice (Harlan Laboratories Models, S.L. Barcelona, Spain or Envigo, Spain) were utilized for all experiments. Animal were housed in individually ventilated cages Sealsafe® Plus, Techniplast S.P.A.), up to ten per cage on a 12-hour light-dark cycle at 21-23° C. and 40-60% humidity. […] Animals were acclimated for at least 5 days prior to tumor implantation with a tumor cell suspension.
# H460 cells were maintained in vitro at 37° C. with 5% CO2 in Dulbecco's Modified Eagle's Medium (Sigma-Aldrich, Co). Culture cells were passaged every 3 to 5 days upon reaching confluence. Each animal was subcutaneously implanted (on the right flank using 26G needle and a 1 cc syringe) at 4-6 weeks of age with 5×10^6 H460 cells suspended in 0.05 mL of a solution consisting of 50% Matrigel® (Corning Incorporated Life Sciences) and 50% medium without serum or antibiotics.
# (§2) Treatment tolerability was assessed by monitoring body weight evolution, clinical signs of systemic toxicity, as well as evidences of local damage in the injection site.
# (§3) In Xenograft Studies with Other Cell Lines: • Tumor volume was calculated using the equation (a·b^2)/2, where a: length (longest diameter) and b: width (shortest diameter) were measured in mm by using digital caliper (Fowler Sylvac, S235PAT).
# (§4) Treatments producing >20% lethality and/or 20% net body weight loss were considered toxic.
# Tables and figures summarize the data obtained from complete experimental groups, i.e. those groups keeping the initial number of animals, n=8-10.
# HGC27 tumors = experiment: Human gastric xenograft, tumor volume
# Procedure: as §1
# HGC27 cells were maintained in vitro at 37° C. with 5% CO2 in Iscove's Modified Dulbecco's Medium (Sigma Aldrich, Co). Culture cells were passage every 3 to 5 days on reaching confluence. Each animal was subcutaneously implanted (on the right flank using 26G needle and a 1 cc syringe) at 4-6 weeks of age with 5×10^6 HGC-27 cells suspended in 0.05 mL of a solution consisting of 50% Matrigel® (Corning Incorporated Life Sciences), 50% medium without serum or antibiotics.
# as §2, §3, §4
# HT1080 tumors [3] = experiment: Human fibrosarcoma xenograft, total diameter (tumor + leg)
# A2780 tumors = experiment: Human ovarian xenograft, tumor volume
# Procedure: as §1
# Culture cells were passaged every 3 to 5 days upon reaching confluence. Each animal was subcutaneously implanted (on the right flank using 26G needle and a 1 cc syringe) at 4-6 weeks of age with 10×10^6 A2780 cells suspended in 0.05 mL of a solution consisting of 50% Matrigel® (Corning Incorporated Life Sciences) and 50% medium without serum or antibiotics.
# as §2, §3, §4
# MDA-MB-231 tumors = experiment: Human breast xenograft, tumor volume
# Procedure: as §1
# MDA-MB-231 cells were maintained in vitro at 37° C. with 5% CO2 in Dulbecco's Modified Eagle's Medium (Sigma-Aldrich, Co). Culture cells were passaged every 3 to 5 days upon reaching confluence.
# as §2, §3, §4
# [4] = system: xenografted human tumor cell lines (breast, kidney and ovarian cancer); details: xenografted human tumor cell lines in mice (breast, kidney and ovarian cancer); cited from earlier work
smiles,measurement,setting,value
COc1c(C)cc2c(c1O)[C@@H]1[C@@H]3[C@@H]4SC[C@]5(NCCc6c5oc5ccccc65)C(=O)OC[C@@H](c5c6c(c(C)c(OC(C)=O)c54)OCO6)N3[C@@H](O)[C@H](C2)N1C [Compound 32],MTMD,[1],0.5 mg/kg
same,Total diameter (tumor + leg),HT1080 tumors [2],7.5 mm
"COc1ccc2[nH]c3c(c2c1)CCN[C@]31CS[C@@H]2c3c(OC(C)=O)c(C)c4c(c3[C@H](COC1=O)N1[C@@H]2[C@H]2c3c(cc(C)c(OC)c3O)C[C@@H]([C@@H]1O)N2C)OCO4 [PM01183, reference compound]",Median Tumor Volume,H460 tumors; Day 2,457.0 mm^3
same,Median Tumor Volume,H460 tumors; Day 4,861.5 mm^3
same,Median Tumor Volume,H460 tumors; Day 7,940.4 mm^3 and 1004.0 mm^3 and 1280.2 mm^3
same,Median Tumor Volume,H460 tumors; Day 9,1210.3 mm^3 and 1211.3 mm^3 and 1424.9 mm^3
same,Median Tumor Volume,H460 tumors; Day 11,1433.8 mm^3 and 1969.9 mm^3
same,Median Tumor Volume,H460 tumors; Day 12,1515.4 mm^3
same,Median Tumor Volume,H460 tumors; Day 14,1529.5 mm^3 and 1633.3 mm^3
same,Median Tumor Volume,H460 tumors; Day 16,1723.9 mm^3
same,Median Tumor Volume,H460 tumors; Day 19,2112.3 mm^3
same,Median Tumor Volume,H460 tumors; Day 21,2409.4 mm^3
same,Median Tumor Volume,HGC27 tumors; Day 2,317.5 mm^3 and 372.4 mm^3 and 395.6 mm^3
same,Median Tumor Volume,HGC27 tumors; Day 5,404.0 mm^3 and 474.1 mm^3 and 572.4 mm^3
same,Median Tumor Volume,HGC27 tumors; Day 7,485.7 mm^3 and 571.8 mm^3 and 766.6 mm^3
same,Median Tumor Volume,HGC27 tumors; Day 9,604.6 mm^3 and 787.9 mm^3 and 950.7 mm^3
same,Median Tumor Volume,HGC27 tumors; Day 12,760.8 mm^3 and 951.1 mm^3
same,Median Tumor Volume,HGC27 tumors; Day 14,789.6 mm^3 and 1064.4 mm^3 and 1199.4 mm^3
same,Median Tumor Volume,HGC27 tumors; Day 16,719.5 mm^3 and 1346.1 mm^3 and 1353.1 mm^3
same,Median Tumor Volume,HGC27 tumors; Day 19,895.9 mm^3 and 1691.8 mm^3 and 1294.3 mm^3
same,Median Tumor Volume,HGC27 tumors; Day 21,1051.3 mm^3 and 1920.0 mm^3 and 1335.1 mm^3
same,Median Tumor Volume,HGC27 tumors; Day 23,2011.4 mm^3 and 1320.3 mm^3
same,Median Tumor Volume,HGC27 tumors; Day 26,1901.2 mm^3 and 2102.2 mm^3 and 1364.5 mm^3
same,Median Tumor Volume,HGC27 tumors; Day 28,2028.9 mm^3
same,Median Tumor Volume,HGC27 tumors; Day 30,1671.9 mm^3
same,Median Tumor Volume,HGC27 tumors; Day 33,2009.2 mm^3
same,Total diameter (tumor + leg),HT1080 tumors [3]; Day 2,9.8 mm
same,Total diameter (tumor + leg),"HT1080 tumors [3]; Day 2, iv Days 0, 7 and 14, PM01183 […], Compound D 0.5 mg/kg",9.2 mm
same,Total diameter (tumor + leg),HT1080 tumors [3]; Day 5,9.7 mm
same,Total diameter (tumor + leg),HT1080 tumors [3]; Day 7,11.4 mm
same,Total diameter (tumor + leg),"HT1080 tumors [3]; Day 7, iv Days 0, 7 and 14, PM01183 […], 4-R 0.30 mg/kg",11.2 mm
same,Total diameter (tumor + leg),"HT1080 tumors [3]; Day 7, iv Days 0, 7 and 14, PM01183 […], Compound D 0.5 mg/kg",12.2 mm
same,Total diameter (tumor + leg),HT1080 tumors [3]; Day 9,12.7 mm
same,Total diameter (tumor + leg),"HT1080 tumors [3]; Day 9, iv Days 0, 7 and 14, PM01183 […], 4-R 0.30 mg/kg",12.3 mm
same,Total diameter (tumor + leg),"HT1080 tumors [3]; Day 9, iv Days 0, 7 and 14, PM01183 […], Compound D 0.5 mg/kg",12.6 mm
same,Total diameter (tumor + leg),HT1080 tumors [3]; Day 12,13.7 mm
same,Total diameter (tumor + leg),"HT1080 tumors [3]; Day 12, iv Days 0, 7 and 14, PM01183 […], Compound D 0.5 mg/kg",13.1 mm
same,Total diameter (tumor + leg),HT1080 tumors [3]; Day 14,14.6 mm
same,Total diameter (tumor + leg),"HT1080 tumors [3]; Day 14, iv Days 0, 7 and 14, PM01183 […], 4-R 0.30 mg/kg",14.6 mm
same,Total diameter (tumor + leg),"HT1080 tumors [3]; Day 14, iv Days 0, 7 and 14, PM01183 […], Compound D 0.5 mg/kg",14.6 mm
same,Total diameter (tumor + leg),HT1080 tumors [3]; Day 16,15.5 mm
same,Total diameter (tumor + leg),"HT1080 tumors [3]; Day 16, iv Days 0, 7 and 14, PM01183 […], Compound D 0.5 mg/kg",14.5 mm
same,Total diameter (tumor + leg),HT1080 tumors [3]; Day 19,15.6 mm
same,Total diameter (tumor + leg),"HT1080 tumors [3]; Day 19, iv Days 0, 7 and 14, PM01183 […], Compound D 0.5 mg/kg",15.0 mm
same,Total diameter (tumor + leg),HT1080 tumors [3]; Day 21,18.0 mm
same,Total diameter (tumor + leg),"HT1080 tumors [3]; Day 21, iv Days 0, 7 and 14, PM01183 […], 4-R 0.30 mg/kg",15.1 mm
same,Total diameter (tumor + leg),"HT1080 tumors [3]; Day 21, iv Days 0, 7 and 14, PM01183 […], Compound D 0.5 mg/kg",18.0 mm
same,Total diameter (tumor + leg),"HT1080 tumors [3]; Day 23, iv Days 0, 7 and 14, PM01183 […], 4-R 0.30 mg/kg",16.3 mm
same,Median Tumor Volume,A2780 tumors; Day 2,235.5 mm^3 and 236.5 mm^3
same,Median Tumor Volume,A2780 tumors; Day 3,454.5 mm^3
same,Median Tumor Volume,A2780 tumors; Day 4,463.2 mm^3
same,Median Tumor Volume,A2780 tumors; Day 5,671.2 mm^3 and 772.1 mm^3
same,Median Tumor Volume,A2780 tumors; Day 7,1048.9 mm^3 and 1161.5 mm^3 and 986.3 mm^3
same,Median Tumor Volume,A2780 tumors; Day 9,1451.4 mm^3
same,Median Tumor Volume,A2780 tumors; Day 10,1615.6 mm^3
same,Median Tumor Volume,A2780 tumors; Day 11,2062 mm^3 and 2062.0 mm^3
same,Median Tumor Volume,A2780 tumors; Day 12,2020.3 mm^3 and 1703.0 mm^3
same,Median Tumor Volume,A2780 tumors; Day 14,2029.3 mm^3
same,Median Tumor Volume,MDA-MB-231 tumors; Day 4,177.2 mm^3
same,Median Tumor Volume,MDA-MB-231 tumors; Day 7,189.0 mm^3 and 185.9 mm^3 and 186.3 mm^3
same,Median Tumor Volume,MDA-MB-231 tumors; Day 11,250.7 mm^3
same,Median Tumor Volume,MDA-MB-231 tumors; Day 14,230.1 mm^3 and 290.8 mm^3 and 266.1 mm^3
same,Median Tumor Volume,MDA-MB-231 tumors; Day 18,327.7 mm^3
same,Median Tumor Volume,MDA-MB-231 tumors; Day 21,305.9 mm^3 and 337.9 mm^3 and 391.0 mm^3
same,Median Tumor Volume,MDA-MB-231 tumors; Day 25,493.1 mm^3
same,Median Tumor Volume,MDA-MB-231 tumors; Day 28,535.8 mm^3 and 507.4 mm^3 and 627.3 mm^3
same,Median Tumor Volume,MDA-MB-231 tumors; Day 32,789.0 mm^3
same,Median Tumor Volume,MDA-MB-231 tumors; Day 35,819.7 mm^3 and 796.1 mm^3
same,Median Tumor Volume,MDA-MB-231 tumors; Day 36,1022.0 mm^3
same,Median Tumor Volume,MDA-MB-231 tumors; Day 39,1294.2 mm^3
same,Median Tumor Volume,MDA-MB-231 tumors; Day 42,962.7 mm^3 and 1062.5 mm^3 and 1643.3 mm^3
same,Median Tumor Volume,MDA-MB-231 tumors; Day 46,1658.9 mm^3
same,Median Tumor Volume,MDA-MB-231 tumors; Day 49,1301.3 mm^3 and 1416.3 mm^3 and 1938.0 mm^3
same,Median Tumor Volume,MDA-MB-231 tumors; Day 52,2199.4 mm^3
same,Median Tumor Volume,MDA-MB-231 tumors; Day 56,1673.3 mm^3
same,Median Tumor Volume,MDA-MB-231 tumors; Day 63,1811.9 mm^3
same,in vivo activity,[4],significant in vivo activity
